{"source": "patent US11279701B2", "about": "“Immunomodulators and immunomodulator conjugates” (REGENTS OF THE UNIVERSITY OF MINNESOTA, priority 2016, dated 2022)", "key": {"human TLR-8": {"molecular_target": "T1, human TLR-8 (Homo sapiens, UniProt Q9NR97)", "T1 construct": "host or cells: HEK cells stably transfected with human TLR-8 and an NF-κB-responsive SEAP reporter (HEK-TLR-8)", "T1 sequence (Q9NR97 27-1041)": "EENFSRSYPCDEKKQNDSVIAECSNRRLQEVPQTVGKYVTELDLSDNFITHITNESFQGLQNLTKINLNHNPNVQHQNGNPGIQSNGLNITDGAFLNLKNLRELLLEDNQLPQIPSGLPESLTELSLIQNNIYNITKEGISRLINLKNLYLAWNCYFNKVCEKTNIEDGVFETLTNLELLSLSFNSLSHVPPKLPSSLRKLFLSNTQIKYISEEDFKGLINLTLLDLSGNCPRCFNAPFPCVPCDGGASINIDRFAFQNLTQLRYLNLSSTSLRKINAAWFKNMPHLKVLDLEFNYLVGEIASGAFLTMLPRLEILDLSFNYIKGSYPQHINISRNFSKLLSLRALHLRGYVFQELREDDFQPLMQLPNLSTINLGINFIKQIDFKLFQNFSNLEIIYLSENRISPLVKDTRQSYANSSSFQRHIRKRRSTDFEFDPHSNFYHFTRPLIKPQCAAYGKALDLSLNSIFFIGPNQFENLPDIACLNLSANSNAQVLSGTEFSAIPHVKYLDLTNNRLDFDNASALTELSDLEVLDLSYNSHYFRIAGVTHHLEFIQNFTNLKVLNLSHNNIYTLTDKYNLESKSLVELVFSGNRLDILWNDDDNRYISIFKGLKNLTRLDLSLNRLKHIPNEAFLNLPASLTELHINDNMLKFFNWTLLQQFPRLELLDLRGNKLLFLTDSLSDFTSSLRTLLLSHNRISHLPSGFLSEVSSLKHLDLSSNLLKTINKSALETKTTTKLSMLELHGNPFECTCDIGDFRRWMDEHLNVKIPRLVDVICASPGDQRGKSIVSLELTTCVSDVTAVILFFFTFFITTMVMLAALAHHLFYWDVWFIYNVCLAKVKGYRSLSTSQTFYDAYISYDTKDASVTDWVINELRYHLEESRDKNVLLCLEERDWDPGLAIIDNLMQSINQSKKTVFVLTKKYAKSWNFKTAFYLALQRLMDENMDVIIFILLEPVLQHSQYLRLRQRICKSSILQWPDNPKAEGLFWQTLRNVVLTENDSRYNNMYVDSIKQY", "assay": "TLR7/8-NF-κB Reporter Assay (HEK SEAP Reporter Assay), HEK-TLR-8 cells", "format": "cell-based", "details": "HEK cells stably transfected with human TLR-8 and NF-κB-responsive SEAP gene, 24 h"}, "human TLR-7": {"molecular_target": "T2, human TLR-7 (Homo sapiens, UniProt Q9NYK1)", "T2 construct": "host or cells: HEK cells stably transfected with human TLR-7 and an NF-κB-responsive SEAP reporter (HEK-TLR-7)", "T2 sequence (Q9NYK1 27-1049)": "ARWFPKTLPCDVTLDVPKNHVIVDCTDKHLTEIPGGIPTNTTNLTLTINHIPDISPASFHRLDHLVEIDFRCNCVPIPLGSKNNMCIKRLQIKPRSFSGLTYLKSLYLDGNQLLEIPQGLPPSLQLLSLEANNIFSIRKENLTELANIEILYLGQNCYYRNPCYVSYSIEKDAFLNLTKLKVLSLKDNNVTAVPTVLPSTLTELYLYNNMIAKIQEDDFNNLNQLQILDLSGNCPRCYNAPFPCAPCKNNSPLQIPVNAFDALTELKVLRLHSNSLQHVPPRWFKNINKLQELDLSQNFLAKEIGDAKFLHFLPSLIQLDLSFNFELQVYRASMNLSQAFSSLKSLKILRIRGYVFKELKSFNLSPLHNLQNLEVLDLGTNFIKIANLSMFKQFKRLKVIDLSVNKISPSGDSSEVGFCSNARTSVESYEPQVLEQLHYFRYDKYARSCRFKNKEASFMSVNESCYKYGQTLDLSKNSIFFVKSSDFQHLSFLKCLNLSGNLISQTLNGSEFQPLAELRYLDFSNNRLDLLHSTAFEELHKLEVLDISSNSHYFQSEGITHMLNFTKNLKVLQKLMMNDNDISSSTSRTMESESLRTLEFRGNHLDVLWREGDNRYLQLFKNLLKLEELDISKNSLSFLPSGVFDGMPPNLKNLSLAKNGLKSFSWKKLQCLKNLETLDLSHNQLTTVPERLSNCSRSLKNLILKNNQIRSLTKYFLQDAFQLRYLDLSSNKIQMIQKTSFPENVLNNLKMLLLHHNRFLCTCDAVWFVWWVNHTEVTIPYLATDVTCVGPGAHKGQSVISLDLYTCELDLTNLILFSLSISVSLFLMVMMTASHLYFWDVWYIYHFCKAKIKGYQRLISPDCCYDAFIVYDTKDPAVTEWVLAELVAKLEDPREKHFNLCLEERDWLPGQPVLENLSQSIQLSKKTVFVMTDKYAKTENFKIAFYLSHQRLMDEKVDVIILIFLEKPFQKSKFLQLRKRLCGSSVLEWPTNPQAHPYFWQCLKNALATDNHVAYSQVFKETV", "assay": "TLR7/8-NF-κB Reporter Assay (HEK SEAP Reporter Assay), HEK-TLR-7 cells", "format": "cell-based", "details": "HEK cells stably transfected with human TLR-7 and NF-κB-responsive SEAP gene, 24 h"}}}
{"molecule": "CCCCc1nc2c(N)nc3cc(C(=O)OC)ccc3c2n1CCCN", "note": "[Compound 572]", "values": [{"measurement": "EC50", "setting": "human TLR-8", "value": 66, "unit": "µM"}]}
{"molecule": "CCCCc1nc2c(N)nc3cc(C(=O)OC)ccc3c2n1CCCC(=O)OC", "note": "[Compound 568]", "values": [{"measurement": "EC50", "setting": "human TLR-7", "value": 4.5, "unit": "µM"}]}
{"molecule": "CCCCc1nc2c(N)nc3cc(C(=O)OC)ccc3c2n1CCCCC(=O)OC", "note": "[Compound 569]", "values": [{"measurement": "EC50", "setting": "human TLR-7", "value": 1.74, "unit": "µM"}]}
{"molecule": "CCCCc1nc2c(N)nc3cc(C(=O)OC)ccc3c2n1CCSC", "note": "[Compound 563]", "values": [{"measurement": "EC50", "setting": "human TLR-7", "value": 2.9, "unit": "µM"}]}
{"molecule": "CCCCc1nc2c(N)nc3cc(C(=O)OC)ccc3c2n1CCCNS(=O)(=O)c1ccccc1", "note": "[Compound 544]", "values": [{"measurement": "EC50", "setting": "human TLR-8", "value": 0.24, "unit": "µM"}, {"measurement": "EC50", "setting": "human TLR-7", "value": 0.42, "unit": "µM"}]}
{"molecule": "CCCCc1nc2c(N)nc3cc(C(=O)OC)ccc3c2n1Cc1ccc(C(=O)O)cc1", "note": "[Compound 556]", "values": [{"measurement": "EC50", "setting": "human TLR-7", "value": 189, "unit": "µM"}]}
{"molecule": "CCCCc1nc2c(N)nc3cc(C(=O)OC)ccc3c2n1CCCCN", "note": "[Compound 573]", "values": [{"measurement": "EC50", "setting": "human TLR-8", "value": 3.85, "unit": "µM"}]}
{"molecule": "CCCCc1nc2c(N)nc3cc(C(=O)OC)ccc3c2n1CC(=O)OC", "note": "[Compound 566]", "values": [{"measurement": "EC50", "setting": "human TLR-7", "value": 3.3, "unit": "µM"}]}
{"molecule": "CCCCc1nc2c(N)nc3cc(C(=O)OC)ccc3c2n1CCC(=O)OC", "note": "[Compound 567]", "values": [{"measurement": "EC50", "setting": "human TLR-7", "value": 3.6, "unit": "µM"}]}
{"molecule": "CCCCc1nc2c(N)nc3cc(C(=O)OC)ccc3c2n1CCCCCN", "note": "[Compound 574]", "values": [{"measurement": "EC50", "setting": "human TLR-8", "value": 2.2, "unit": "µM"}, {"measurement": "EC50", "setting": "human TLR-7", "value": 0.6, "unit": "µM"}]}
{"molecule": "CCCCc1nc2c(N)nc3cc(C(=O)OC)ccc3c2n1CCCCCC(=O)OC", "note": "[Compound 570]", "values": [{"measurement": "EC50", "setting": "human TLR-7", "value": 2.9, "unit": "µM"}]}
{"molecule": "CCCCc1nc2c(N)nc3cc(C(=O)OC)ccc3c2n1CCCSC", "note": "[Compound 564]", "values": [{"measurement": "EC50", "setting": "human TLR-7", "value": 3.8, "unit": "µM"}]}
{"molecule": "4-amino-2-butyl-1-(2-hydroxypropyl)-7-benzenesulphonyl-1H-imidazo[4,5-c]quinoline [Compound 548]", "values": [{"measurement": "EC50", "setting": "human TLR-8", "value": 0.29, "unit": "µM"}, {"measurement": "EC50", "setting": "human TLR-7", "value": 1.53, "unit": "µM"}]}
{"molecule": "CCCCc1nc2c(N)nc3cc(C(=O)OC)ccc3c2n1CCSCC", "note": "[Compound 565]", "values": [{"measurement": "EC50", "setting": "human TLR-7", "value": 6.7, "unit": "µM"}]}
